From PubChem BioAssay AID1963970 (Molecular Pharmacology Branch, DTP, NCI, 2024)
Blank lines part the entries; values can stand above or below the molecule they belong to.

Test system: 931267-113-T-J1-PDC multicell spheroid viability
Experiment: Anticancer human tumor 931267-113-T-J1-PDC patient-derived colon adenocarcinoma cell line growth inhibition [PI3K]
Details: for viability, T/C: stronger effect = lower value
Outline: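 Viability of mixed-cell spheroids was determined after exposure to pairwise combinations, one partner being inavolisib, alpelisib, duvelisib or copanlisib. Highest tested concentration matched clinical Cmax where known and 10 microM where not, descending in half-log steps.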

[1] = curve of first compound, second compound 0.00316 µM
[2] = curve of first compound, second compound 0.01 µM
[3] = curve of first compound, second compound 0.0316 µM
[4] = curve of first compound, second compound 0.1 µM
[5] = curve of first compound, second compound 0.316 µM
[6] = curve of first compound, second compound 1 µM
[7] = second compound 0.00316 µM, first compound 0.0316 µM
[8] = second compound 0.00316 µM, first compound 0.1 µM
[9] = second compound 0.00316 µM, first compound 0.316 µM
[10] = second compound 0.00316 µM, first compound 1 µM
[11] = second compound 0.01 µM, first compound 0.0316 µM
[12] = second compound 0.01 µM, first compound 0.1 µM
[13] = second compound 0.01 µM, first compound 0.316 µM
[14] = second compound 0.01 µM, first compound 1 µM
[15] = second compound 0.0316 µM, first compound 0.0316 µM
[16] = second compound 0.0316 µM, first compound 0.1 µM
[17] = second compound 0.0316 µM, first compound 0.316 µM
[18] = second compound 0.0316 µM, first compound 1 µM
[19] = second compound 0.0316 µM, first compound 3.16 µM
[20] = second compound 0.0316 µM, first compound 10 µM
[21] = second compound 0.1 µM, first compound 0.0316 µM
[22] = second compound 0.1 µM, first compound 0.1 µM
[23] = second compound 0.1 µM, first compound 0.316 µM
[24] = second compound 0.1 µM, first compound 1 µM
[25] = second compound 0.1 µM, first compound 3.16 µM
[26] = second compound 0.1 µM, first compound 10 µM
[27] = second compound 0.316 µM, first compound 0.0316 µM
[28] = second compound 0.316 µM, first compound 0.1 µM
[29] = second compound 0.316 µM, first compound 0.316 µM
[30] = second compound 0.316 µM, first compound 1 µM
[31] = second compound 0.316 µM, first compound 3.16 µM
[32] = second compound 0.316 µM, first compound 10 µM
[33] = second compound 1 µM, first compound 0.0316 µM
[34] = second compound 1 µM, first compound 0.1 µM
[35] = second compound 1 µM, first compound 0.316 µM
[36] = second compound 1 µM, first compound 1 µM
[37] = second compound 1 µM, first compound 3.16 µM
[38] = second compound 1 µM, first compound 10 µM
[39] = compound alone, run of 05/09/2023
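Note: viability read 7 days after compound addition.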

IC50 [3]: > 10 µM
IC50 [4]: > 10 µM
IC50 [5]: > 10 µM
IC50 [6]: > 10 µM
IC50 (curve of first compound, second compound 3.16 µM): > 10 µM
IC50 (curve of first compound, second compound 10 µM): > 10 µM
Structure (SMILES): C=CC(=O)N1CCN(c2nc(=O)n(-c3c(C)ccnc3C(C)C)c3nc(-c4c(O)cccc4F)c(F)cc23)C(C)C1 (stereo not given) + Cc1nc(NC(=O)N2CCCC2C(N)=O)sc1-c1ccnc(C(C)(C)C(F)(F)F)c1
viability, T/C [15]: 86.3%
viability, T/C [16]: 91.1%
viability, T/C [17]: 99.2%
viability, T/C [18]: 104%
viability, T/C [19]: 108%
viability, T/C [20]: 85.5%
viability, T/C [21]: 99.6%
viability, T/C [22]: 78.7%
viability, T/C [23]: 85.7%
viability, T/C [24]: 100%
viability, T/C [25]: 105%
viability, T/C [26]: 82.7%
viability, T/C [27]: 80.6%
viability, T/C [28]: 87.2%
viability, T/C [29]: 94.1%
viability, T/C [30]: 91.8%
viability, T/C [31]: 84.7%
viability, T/C [32]: 76.9%
viability, T/C [33]: 83.5%
viability, T/C [34]: 76.6%
viability, T/C [35]: 73.9%
viability, T/C [36]: 83.7%
viability, T/C [37]: 94.7%
viability, T/C [38]: 65.6%
viability, T/C (second compound 3.16 µM, first compound 0.0316 µM): 66.3%
viability, T/C (second compound 3.16 µM, first compound 0.1 µM): 71.3%
viability, T/C (second compound 3.16 µM, first compound 0.316 µM): 71.1%
viability, T/C (second compound 3.16 µM, first compound 1 µM): 72.7%
viability, T/C (second compound 3.16 µM, first compound 3.16 µM): 71.2%
viability, T/C (second compound 3.16 µM, first compound 10 µM): 59%
viability, T/C (second compound 10 µM, first compound 0.0316 µM): 54.6%
viability, T/C (second compound 10 µM, first compound 0.1 µM): 55.2%
viability, T/C (second compound 10 µM, first compound 0.316 µM): 59.2%
viability, T/C (second compound 10 µM, first compound 1 µM): 62.6%
viability, T/C (second compound 10 µM, first compound 3.16 µM): 62.4%
viability, T/C (second compound 10 µM, first compound 10 µM): 49%

IC50 [1]: > 1 µM
IC50 [2]: > 1 µM
IC50 [3]: > 1 µM
IC50 [4]: 0.0888 µM
IC50 [5]: < 0.00316 µM
IC50 [6]: < 0.00316 µM
Structure (SMILES): CCN1CCN(Cc2ccc(Nc3ncc(F)c(-c4cc(F)c5nc(C)n(C(C)C)c5c4)n3)nc2)CC1 + COc1c(OCCCN2CCOCC2)ccc2c3n(c(=NC(=O)c4cnc(N)nc4)nc12)CCN3
viability, T/C (second compound 0.00316 µM, first compound 0.00316 µM): 91.3%
viability, T/C (second compound 0.00316 µM, first compound 0.01 µM): 105%
viability, T/C [7]: 97.3%
viability, T/C [8]: 98.7%
viability, T/C [9]: 94.2%
viability, T/C [10]: 81.7%
viability, T/C (second compound 0.01 µM, first compound 0.00316 µM): 103%
viability, T/C (second compound 0.01 µM, first compound 0.01 µM): 89.4%
viability, T/C [11]: 87.6%
viability, T/C [12]: 90.2%
viability, T/C [13]: 89%
viability, T/C [14]: 67%
viability, T/C (second compound 0.0316 µM, first compound 0.00316 µM): 84.3%
viability, T/C (second compound 0.0316 µM, first compound 0.01 µM): 79.1%
viability, T/C [15]: 76.8%
viability, T/C [16]: 70.8%
viability, T/C [17]: 67.2%
viability, T/C [18]: 55.5%
viability, T/C (second compound 0.1 µM, first compound 0.00316 µM): 66.3%
viability, T/C (second compound 0.1 µM, first compound 0.01 µM): 65.6%
viability, T/C [21]: 57.2%
viability, T/C [22]: 47.5%
viability, T/C [23]: 49.2%
viability, T/C [24]: 50.8%
viability, T/C (second compound 0.316 µM, first compound 0.00316 µM): 53.5%
viability, T/C (second compound 0.316 µM, first compound 0.01 µM): 44.7%
viability, T/C [27]: 39.6%
viability, T/C [28]: 37.3%
viability, T/C [29]: 41.6%
viability, T/C [30]: 45%
viability, T/C (second compound 1 µM, first compound 0.00316 µM): 33.6%
viability, T/C (second compound 1 µM, first compound 0.01 µM): 35.6%
viability, T/C [33]: 25.3%
viability, T/C [34]: 32.3%
viability, T/C [35]: 35.9%
viability, T/C [36]: 36.7%

Further lines, the molecule ahead of its results:

Structure (SMILES): CCCS(=O)(=O)Nc1ccc(F)c(C(=O)c2c[nH]c3ncc(-c4ccc(Cl)cc4)cc23)c1F + CC(Nc1ccc2c(c1)OCCn1cc(N3C(=O)OCC3C(F)F)nc1-2)C(N)=O
IC50 [1]: 6.11 µM
IC50 [2]: 6.34 µM
IC50 [3]: 6.06 µM
IC50 [4]: 5.73 µM
IC50 [5]: 4.89 µM
IC50 [6]: 4.58 µM
viability, T/C [7]: 95.6%
viability, T/C [8]: 105%
viability, T/C [9]: 125%
viability, T/C [10]: 117%
viability, T/C (second compound 0.00316 µM, first compound 3.16 µM): 120%
viability, T/C (second compound 0.00316 µM, first compound 10 µM): 2.95%
viability, T/C [11]: 113%
viability, T/C [12]: 118%
viability, T/C [13]: 121%
viability, T/C [14]: 125%
viability, T/C (second compound 0.01 µM, first compound 3.16 µM): 132%
viability, T/C (second compound 0.01 µM, first compound 10 µM): 3.03%
viability, T/C [15]: 105%
viability, T/C [16]: 103%
viability, T/C [17]: 110%
viability, T/C [18]: 119%
viability, T/C [19]: 114%
viability, T/C [20]: 3.59%
viability, T/C [21]: 91.9%
viability, T/C [22]: 81.2%
viability, T/C [23]: 102%
viability, T/C [24]: 107%
viability, T/C [25]: 111%
viability, T/C [26]: 4.35%
viability, T/C [27]: 82.3%
viability, T/C [28]: 86.5%
viability, T/C [29]: 87.9%
viability, T/C [30]: 99.2%
viability, T/C [31]: 78.9%
viability, T/C [32]: 2.7%
viability, T/C [33]: 75.5%
viability, T/C [34]: 75.4%
viability, T/C [35]: 76.3%
viability, T/C [36]: 61.3%
viability, T/C [37]: 74.7%
viability, T/C [38]: 2.07%

Structure (SMILES): CC(Nc1ncnc2nc[nH]c12)c1cc2cccc(Cl)c2c(=O)n1-c1ccccc1 (stereo not given)
viability, T/C (compound 0.0316 µM): 102% [middle of 8 runs]
viability, T/C (compound 0.1 µM): 99.7% [middle of 8 runs]
viability, T/C (compound 0.316 µM): 102% [middle of 8 runs]
viability, T/C (compound 1 µM): 100% [middle of 8 runs]
viability, T/C (compound 3.16 µM): 99.7% [middle of 8 runs]
viability, T/C (compound 10 µM): 96.7% [middle of 8 runs]
IC50 [39]: > 10 µM

Structure (SMILES): COc1c(OCCCN2CCOCC2)ccc2c3n(c(=NC(=O)c4cnc(N)nc4)nc12)CCN3
viability, T/C (compound 0.00316 µM): 101% [middle of 8 runs]
viability, T/C (compound 0.01 µM): 95.7% [middle of 8 runs]
viability, T/C (compound 0.0316 µM): 80.6% [middle of 8 runs]
viability, T/C (compound 0.1 µM): 67.6% [middle of 8 runs]
viability, T/C (compound 0.316 µM): 51% [middle of 8 runs]
viability, T/C (compound 1 µM): 39.6% [middle of 8 runs]
IC50 [39]: 375 nM [middle of 8 runs]
